# Assay results taken from ChEMBL document CHEMBL3091388, “New cytotoxic benzosuberene analogs. Synthesis, molecular modeling and biological evaluation” (Bioorg Med Chem Lett, 2013).
# pIC50: −log10 of the molar value.
# System: not listed separately
# Assay: Apparent permeability from apical to basolateral side in RRCK cells
# Assay type: ADME, cell-based, Canis lupus familiaris, MDCKII-LE
# Details: dog, MDCK
row,Compound,Papp A→B
1,COc1ccc2c(c1O)CCCC(CCCC#N)=C2c1cc(OC)c(OC)c(OC)c1,16.6 ×10⁻⁶ cm/s
2,COc1ccc2c(c1O)CCCC(CCC#N)=C2c1cc(OC)c(OC)c(OC)c1,19.6 ×10⁻⁶ cm/s
3,CCC1=C(c2cc(OC)c(OC)c(OC)c2)c2ccc(OC)c(O)c2CCC1,3.3 ×10⁻⁶ cm/s
4,COc1ccc2c(c1O)CCCC(C)=C2c1cc(OC)c(OC)c(OC)c1,6.2 ×10⁻⁶ cm/s
5,COc1ccc2c(c1O)CCCC(CC(O)CO)=C2c1cc(OC)c(OC)c(OC)c1 (racemic),16.1 ×10⁻⁶ cm/s
6,COc1cc2c(c(OC)c1OC)-c1ccc(OC)c(=O)cc1[C@@H](NC(C)=O)CC2 [COLCHICINE],0.76 ×10⁻⁶ cm/s

# System: BT-474
# Assay: Cytotoxicity against human BT474 cells assessed as cell viability after 4 days by MTS assay
# Assay type: functional, cell-based
# Details: BT-474, 96 h
row,Compound,pIC50
1,COc1ccc2c(c1O)CCCC(CCCC#N)=C2c1cc(OC)c(OC)c(OC)c1,6.04
2,COc1ccc2c(c1O)CC=CC=C2c1cc(OC)c(OC)c(OC)c1,8.26
3,COc1ccc2c(c1O)CCCC(CCC#N)=C2c1cc(OC)c(OC)c(OC)c1,6.14
4,CCC1=C(c2cc(OC)c(OC)c(OC)c2)c2ccc(OC)c(O)c2CCC1,6.45
5,COc1ccc2c(c1O)CCCC(C)=C2c1cc(OC)c(OC)c(OC)c1,7.28
6,COc1ccc2c(c1O)CCCC(CC(O)CO)=C2c1cc(OC)c(OC)c(OC)c1 (racemic),6.00
7,COc1cc2c(c(OC)c1OC)-c1ccc(OC)c(=O)cc1[C@@H](NC(C)=O)CC2 [COLCHICINE],8.42

# Target: CYP2C9 (Homo sapiens, UniProt P11712)
# Sequence (P11712 whole entry): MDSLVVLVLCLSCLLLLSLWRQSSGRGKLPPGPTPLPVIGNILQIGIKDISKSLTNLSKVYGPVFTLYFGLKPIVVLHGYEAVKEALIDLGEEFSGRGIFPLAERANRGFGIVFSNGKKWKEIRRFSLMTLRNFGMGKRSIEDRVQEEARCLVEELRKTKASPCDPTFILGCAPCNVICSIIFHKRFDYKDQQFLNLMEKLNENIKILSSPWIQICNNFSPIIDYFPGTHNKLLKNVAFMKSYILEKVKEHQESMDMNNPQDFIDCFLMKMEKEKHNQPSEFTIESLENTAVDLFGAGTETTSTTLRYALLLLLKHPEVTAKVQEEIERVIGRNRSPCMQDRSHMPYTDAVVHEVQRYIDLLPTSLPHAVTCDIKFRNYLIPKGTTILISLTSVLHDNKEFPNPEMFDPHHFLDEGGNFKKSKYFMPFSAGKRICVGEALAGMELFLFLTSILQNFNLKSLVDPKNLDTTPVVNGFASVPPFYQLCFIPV
# Assay: Inhibition of CYP2C9 (unknown origin) at 3 uM
# Assay type: ADME
# Details: not given
row,Compound,inhibition at 3 µM
1,COc1ccc2c(c1O)CCCC(CCCC#N)=C2c1cc(OC)c(OC)c(OC)c1,23.7%
2,COc1ccc2c(c1O)CCCC(CCC#N)=C2c1cc(OC)c(OC)c(OC)c1,75.7%
3,CCC1=C(c2cc(OC)c(OC)c(OC)c2)c2ccc(OC)c(O)c2CCC1,75%
4,COc1ccc2c(c1O)CCCC(C)=C2c1cc(OC)c(OC)c(OC)c1,91.5%
5,COc1ccc2c(c1O)CCCC(CC(O)CO)=C2c1cc(OC)c(OC)c(OC)c1 (racemic),6.1%
6,COc1cc2c(c(OC)c1OC)-c1ccc(OC)c(=O)cc1[C@@H](NC(C)=O)CC2 [COLCHICINE],11.1%

# Target: CYP2D6 (Homo sapiens, UniProt P10635)
# Sequence (P10635 whole entry): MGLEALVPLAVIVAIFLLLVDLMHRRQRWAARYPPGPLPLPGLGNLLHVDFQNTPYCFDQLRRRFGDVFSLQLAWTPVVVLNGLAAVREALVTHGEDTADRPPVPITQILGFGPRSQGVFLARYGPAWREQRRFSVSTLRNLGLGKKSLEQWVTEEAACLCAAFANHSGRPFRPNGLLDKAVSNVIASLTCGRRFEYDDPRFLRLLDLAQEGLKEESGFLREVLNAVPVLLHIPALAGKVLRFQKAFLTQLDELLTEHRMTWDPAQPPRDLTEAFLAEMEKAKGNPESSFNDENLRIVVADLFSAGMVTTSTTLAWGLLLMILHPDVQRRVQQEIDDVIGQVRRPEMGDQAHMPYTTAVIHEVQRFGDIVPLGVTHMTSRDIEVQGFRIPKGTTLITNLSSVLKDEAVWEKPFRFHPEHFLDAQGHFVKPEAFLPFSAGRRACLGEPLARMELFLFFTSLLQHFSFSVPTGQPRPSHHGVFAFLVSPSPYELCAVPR
# Assay: Inhibition of CYP2D6 (unknown origin) at 3 uM
# Assay type: ADME
# Details: not given
row,Compound,inhibition at 3 µM
1,COc1ccc2c(c1O)CCCC(CCCC#N)=C2c1cc(OC)c(OC)c(OC)c1,0.9%
2,COc1ccc2c(c1O)CCCC(CCC#N)=C2c1cc(OC)c(OC)c(OC)c1,2.8%
3,CCC1=C(c2cc(OC)c(OC)c(OC)c2)c2ccc(OC)c(O)c2CCC1,16%
4,COc1ccc2c(c1O)CCCC(C)=C2c1cc(OC)c(OC)c(OC)c1,13.5%
5,COc1ccc2c(c1O)CCCC(CC(O)CO)=C2c1cc(OC)c(OC)c(OC)c1 (racemic),0%
6,COc1cc2c(c(OC)c1OC)-c1ccc(OC)c(=O)cc1[C@@H](NC(C)=O)CC2 [COLCHICINE],7.7%

# System: MDA-MB-468
# Assay: Cytotoxicity against human MDA-MB-468 cells assessed as cell viability after 4 days by MTS assay
# Assay type: functional, cell-based
# Details: MDA-MB-468, 96 h
row,Compound,pIC50
1,COc1ccc2c(c1O)CCCC(CCCC#N)=C2c1cc(OC)c(OC)c(OC)c1,< 6.00
2,COc1ccc2c(c1O)CC=CC=C2c1cc(OC)c(OC)c(OC)c1,8.40
3,COc1ccc2c(c1O)CCCC(CCC#N)=C2c1cc(OC)c(OC)c(OC)c1,6.25
4,CCC1=C(c2cc(OC)c(OC)c(OC)c2)c2ccc(OC)c(O)c2CCC1,6.52
5,COc1ccc2c(c1O)CCCC(C)=C2c1cc(OC)c(OC)c(OC)c1,7.35
6,COc1ccc2c(c1O)CCCC(CC(O)CO)=C2c1cc(OC)c(OC)c(OC)c1 (racemic),6.04
7,COc1cc2c(c(OC)c1OC)-c1ccc(OC)c(=O)cc1[C@@H](NC(C)=O)CC2 [COLCHICINE],8.68

# System: NCI-N87
# Assay: Cytotoxicity against human NCI-N87 cells assessed as cell viability after 4 days by MTS assay
# Assay type: functional, cell-based
# Details: NCI-N87, 96 h
row,Compound,pIC50
1,COc1ccc2c(c1O)CCCC(CCCC#N)=C2c1cc(OC)c(OC)c(OC)c1,6.08
2,COc1ccc2c(c1O)CC=CC=C2c1cc(OC)c(OC)c(OC)c1,8.25
3,COc1ccc2c(c1O)CCCC(CCC#N)=C2c1cc(OC)c(OC)c(OC)c1,6.06
4,CCC1=C(c2cc(OC)c(OC)c(OC)c2)c2ccc(OC)c(O)c2CCC1,6.48
5,COc1ccc2c(c1O)CCCC(C)=C2c1cc(OC)c(OC)c(OC)c1,6.69
6,COc1ccc2c(c1O)CCCC(CC(O)CO)=C2c1cc(OC)c(OC)c(OC)c1 (racemic),< 6.00
7,COc1cc2c(c(OC)c1OC)-c1ccc(OC)c(=O)cc1[C@@H](NC(C)=O)CC2 [COLCHICINE],8.27

# Target: T1, CYP2C8 (Homo sapiens, UniProt P10632)
# T1 sequence (P10632 whole entry): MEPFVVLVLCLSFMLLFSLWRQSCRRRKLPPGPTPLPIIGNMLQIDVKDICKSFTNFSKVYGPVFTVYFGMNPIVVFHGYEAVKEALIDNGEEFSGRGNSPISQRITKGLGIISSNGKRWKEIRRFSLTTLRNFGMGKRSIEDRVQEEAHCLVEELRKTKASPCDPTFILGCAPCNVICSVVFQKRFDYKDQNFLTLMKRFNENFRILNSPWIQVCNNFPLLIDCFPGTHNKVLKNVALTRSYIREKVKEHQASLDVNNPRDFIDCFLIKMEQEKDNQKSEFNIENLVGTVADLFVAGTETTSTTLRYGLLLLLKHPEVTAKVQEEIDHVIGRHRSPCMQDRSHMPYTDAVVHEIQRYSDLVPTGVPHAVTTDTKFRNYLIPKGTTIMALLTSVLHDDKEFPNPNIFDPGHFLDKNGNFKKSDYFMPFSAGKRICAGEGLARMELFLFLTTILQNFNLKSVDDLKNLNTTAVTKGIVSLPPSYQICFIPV
# Assay: Inhibition of CYP2C8 (unknown origin) at 3 uM
# Assay type: ADME
# Details: not given
row,Compound,inhibition at 3 µM
1,COc1ccc2c(c1O)CCCC(CCCC#N)=C2c1cc(OC)c(OC)c(OC)c1,50.5%
2,COc1ccc2c(c1O)CCCC(CCC#N)=C2c1cc(OC)c(OC)c(OC)c1,45.3%
3,CCC1=C(c2cc(OC)c(OC)c(OC)c2)c2ccc(OC)c(O)c2CCC1,71.5%
4,COc1ccc2c(c1O)CCCC(C)=C2c1cc(OC)c(OC)c(OC)c1,83.2%
5,COc1ccc2c(c1O)CCCC(CC(O)CO)=C2c1cc(OC)c(OC)c(OC)c1 (racemic),35.4%
6,COc1cc2c(c(OC)c1OC)-c1ccc(OC)c(=O)cc1[C@@H](NC(C)=O)CC2 [COLCHICINE],20.4%

# Target: CYP3A4 (Homo sapiens, UniProt P08684)
# Sequence (P08684 whole entry): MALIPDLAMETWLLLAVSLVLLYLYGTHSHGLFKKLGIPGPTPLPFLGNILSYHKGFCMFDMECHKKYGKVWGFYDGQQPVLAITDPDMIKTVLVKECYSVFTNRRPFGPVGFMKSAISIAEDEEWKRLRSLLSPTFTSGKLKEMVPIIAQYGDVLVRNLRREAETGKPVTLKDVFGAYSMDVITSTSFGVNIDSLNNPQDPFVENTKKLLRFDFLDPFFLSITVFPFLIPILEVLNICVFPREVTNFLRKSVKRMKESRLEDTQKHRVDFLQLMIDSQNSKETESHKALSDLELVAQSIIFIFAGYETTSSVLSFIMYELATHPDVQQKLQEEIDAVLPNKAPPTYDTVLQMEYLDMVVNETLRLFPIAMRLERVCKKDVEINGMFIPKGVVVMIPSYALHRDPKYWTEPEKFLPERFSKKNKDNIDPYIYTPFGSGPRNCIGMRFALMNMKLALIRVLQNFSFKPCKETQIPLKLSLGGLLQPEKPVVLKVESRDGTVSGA
# Assay: Inhibition of CYP3A4 (unknown origin) at 3 uM
# Assay type: ADME
# Details: not given
row,Compound,inhibition at 3 µM
1,COc1ccc2c(c1O)CCCC(CCCC#N)=C2c1cc(OC)c(OC)c(OC)c1,25.3%
2,COc1ccc2c(c1O)CCCC(CCC#N)=C2c1cc(OC)c(OC)c(OC)c1,31.4%
3,CCC1=C(c2cc(OC)c(OC)c(OC)c2)c2ccc(OC)c(O)c2CCC1,31.8%
4,COc1ccc2c(c1O)CCCC(C)=C2c1cc(OC)c(OC)c(OC)c1,39.6%
5,COc1ccc2c(c1O)CCCC(CC(O)CO)=C2c1cc(OC)c(OC)c(OC)c1 (racemic),3.7%

# System: HUVEC
# Assay: Cytotoxicity against HUVEC assessed as cell viability after 4 days by MTS assay
# Assay type: cell-based
# Details: Homo sapiens, 96 h
row,Compound,pIC50
1,COc1ccc2c(c1O)CCCC(CCCC#N)=C2c1cc(OC)c(OC)c(OC)c1,6.16
2,COc1ccc2c(c1O)CC=CC=C2c1cc(OC)c(OC)c(OC)c1,8.30
3,COc1ccc2c(c1O)CCCC(CCC#N)=C2c1cc(OC)c(OC)c(OC)c1,6.19
4,CCC1=C(c2cc(OC)c(OC)c(OC)c2)c2ccc(OC)c(O)c2CCC1,6.71
5,COc1ccc2c(c1O)CCCC(C)=C2c1cc(OC)c(OC)c(OC)c1,7.11
6,COc1ccc2c(c1O)CCCC(CC(O)CO)=C2c1cc(OC)c(OC)c(OC)c1 (racemic),< 6.00
7,COc1cc2c(c(OC)c1OC)-c1ccc(OC)c(=O)cc1[C@@H](NC(C)=O)CC2 [COLCHICINE],7.88

# System: not listed separately
# Assay: Apparent intrinsic clearance in human liver microsomes at 1 uM
# Assay type: ADME
# Details: read-out: CLH(app)
row,Compound,microsomal CLint at 1 µM
1,COc1ccc2c(c1O)CCCC(CCCC#N)=C2c1cc(OC)c(OC)c(OC)c1,239 µL/min/mg
2,COc1ccc2c(c1O)CCCC(CCC#N)=C2c1cc(OC)c(OC)c(OC)c1,> 320 µL/min/mg
3,CCC1=C(c2cc(OC)c(OC)c(OC)c2)c2ccc(OC)c(O)c2CCC1,136 µL/min/mg
4,COc1ccc2c(c1O)CCCC(C)=C2c1cc(OC)c(OC)c(OC)c1,108 µL/min/mg
5,COc1ccc2c(c1O)CCCC(CC(O)CO)=C2c1cc(OC)c(OC)c(OC)c1 (racemic),66.3 µL/min/mg

# Target: T2, CYP1A2 (Homo sapiens, UniProt P05177)
# T2 sequence (P05177 whole entry): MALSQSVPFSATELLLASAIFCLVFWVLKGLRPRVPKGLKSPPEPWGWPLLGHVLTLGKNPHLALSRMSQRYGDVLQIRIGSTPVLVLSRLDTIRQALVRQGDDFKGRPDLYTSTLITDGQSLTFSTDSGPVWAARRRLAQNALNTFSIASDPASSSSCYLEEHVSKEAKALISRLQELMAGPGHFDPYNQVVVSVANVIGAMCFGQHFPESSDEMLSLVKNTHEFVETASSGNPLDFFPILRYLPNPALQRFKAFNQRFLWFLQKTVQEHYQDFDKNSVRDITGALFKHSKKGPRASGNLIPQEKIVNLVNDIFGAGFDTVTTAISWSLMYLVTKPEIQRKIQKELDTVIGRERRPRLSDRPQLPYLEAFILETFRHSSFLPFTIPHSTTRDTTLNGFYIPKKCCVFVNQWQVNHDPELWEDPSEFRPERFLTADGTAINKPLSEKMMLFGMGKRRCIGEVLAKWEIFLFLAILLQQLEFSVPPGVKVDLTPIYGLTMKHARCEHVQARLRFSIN
# Assay: Inhibition of CYP1A2 (unknown origin) at 3 uM
# Assay type: ADME
# Details: not given
row,Compound,inhibition at 3 µM
1,COc1ccc2c(c1O)CCCC(CCCC#N)=C2c1cc(OC)c(OC)c(OC)c1,1.5%
2,COc1ccc2c(c1O)CCCC(CCC#N)=C2c1cc(OC)c(OC)c(OC)c1,2.8%
3,CCC1=C(c2cc(OC)c(OC)c(OC)c2)c2ccc(OC)c(O)c2CCC1,11.3%
4,COc1ccc2c(c1O)CCCC(C)=C2c1cc(OC)c(OC)c(OC)c1,19.7%
5,COc1ccc2c(c1O)CCCC(CC(O)CO)=C2c1cc(OC)c(OC)c(OC)c1 (racemic),0%

# Target: MDR1 (ABCB1, P-gp) (Homo sapiens, UniProt P08183)
# Sequence (P08183 whole entry): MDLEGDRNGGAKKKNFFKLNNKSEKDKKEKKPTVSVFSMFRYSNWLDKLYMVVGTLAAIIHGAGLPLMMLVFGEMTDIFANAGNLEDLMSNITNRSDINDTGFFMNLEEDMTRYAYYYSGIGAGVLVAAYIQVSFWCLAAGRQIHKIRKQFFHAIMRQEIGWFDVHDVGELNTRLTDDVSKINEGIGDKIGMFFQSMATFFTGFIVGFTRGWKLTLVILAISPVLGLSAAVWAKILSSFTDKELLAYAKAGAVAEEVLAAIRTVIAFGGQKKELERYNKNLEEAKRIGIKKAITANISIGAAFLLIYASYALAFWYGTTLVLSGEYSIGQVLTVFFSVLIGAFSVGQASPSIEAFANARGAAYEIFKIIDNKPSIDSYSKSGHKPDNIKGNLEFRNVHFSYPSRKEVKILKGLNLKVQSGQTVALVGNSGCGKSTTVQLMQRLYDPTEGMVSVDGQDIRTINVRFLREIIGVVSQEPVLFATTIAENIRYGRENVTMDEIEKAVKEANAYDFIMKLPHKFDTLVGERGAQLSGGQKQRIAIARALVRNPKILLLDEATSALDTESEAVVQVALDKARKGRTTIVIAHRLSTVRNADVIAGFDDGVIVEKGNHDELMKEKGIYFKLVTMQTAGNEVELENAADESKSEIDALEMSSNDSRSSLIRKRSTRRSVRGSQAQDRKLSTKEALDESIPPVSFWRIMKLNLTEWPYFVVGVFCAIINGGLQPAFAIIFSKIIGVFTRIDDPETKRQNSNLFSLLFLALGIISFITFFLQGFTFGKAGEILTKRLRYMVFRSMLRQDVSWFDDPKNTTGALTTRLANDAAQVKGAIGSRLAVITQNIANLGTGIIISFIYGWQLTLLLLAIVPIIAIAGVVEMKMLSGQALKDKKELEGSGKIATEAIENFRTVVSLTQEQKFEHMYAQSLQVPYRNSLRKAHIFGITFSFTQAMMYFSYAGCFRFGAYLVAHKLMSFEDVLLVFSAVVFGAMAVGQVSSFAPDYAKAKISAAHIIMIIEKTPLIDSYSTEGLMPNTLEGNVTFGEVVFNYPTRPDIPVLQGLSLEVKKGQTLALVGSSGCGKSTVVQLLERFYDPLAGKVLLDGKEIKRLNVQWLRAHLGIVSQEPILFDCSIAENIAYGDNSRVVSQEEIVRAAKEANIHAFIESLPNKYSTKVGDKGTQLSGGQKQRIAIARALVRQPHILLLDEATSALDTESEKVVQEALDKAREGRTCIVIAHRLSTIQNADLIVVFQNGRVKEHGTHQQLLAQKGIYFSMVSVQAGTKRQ
# Assay: Activity at MDR1 (unknown origin) expressed in MDCK cells assessed as efflux ratio of permeability at 2 uM
# Assay type: ADME, cell-based
# Details: not given
row,Compound,efflux ratio at 2 µM
1,COc1ccc2c(c1O)CCCC(CCC#N)=C2c1cc(OC)c(OC)c(OC)c1,1.2
2,CCC1=C(c2cc(OC)c(OC)c(OC)c2)c2ccc(OC)c(O)c2CCC1,1
3,COc1ccc2c(c1O)CCCC(C)=C2c1cc(OC)c(OC)c(OC)c1,13.1
